Data on one molecule can be found in patent US20250283041A1, “METHODS FOR PRODUCING RED BLOOD CELLS” (Albert Einstein College of Medicine, priority 2022, published 2025).

The test deals with cells from the A4 clone (hemizygous D816V kit iPSC line). The test is described as follows: Enucleation rate by flow cytometry using DRAQ5 (PSC-RED protocol without SCF and Epo). The test is classed as cell-based, human. To be noted: clone A4, 200 nM dasatinib introduced starting at day 35, read at day 41; without dasatinib about 18%. On the technique in general: Flow cytometry measures light scatter and fluorescence of single cells or particles in a stream.

Experimental: Enucleation: The enucleation rate was measured using the DRAQ5 DNA nuclear stain (ThermoFisher) after exclusion of dead cells with Propidium Iodide. The cells were analyzed with an Aurora flow cytometer (Cytek) flow cytometer, and the flow cytometry data were analyzed with the Flowjo software.
To assess the effect of the D816V kit mutation, control 01 iPSCs were differentiated, and hemizygous clone A4 and homozygous and B34 were randomly selected using the PSC-RED protocol with or without SCF and Epo (FIG. 3A). Dasatinib, which can be used to inhibit the activity of the D816V SCF receptor, was also included in some experiments. Cells were counted once a week, and differentiation was evaluated by flow cytometry, methyl-cellulose assays, and microscopy after Romanowsky staining.
The rate of enucleation was determined by flow cytometry using DRAQ5, a cell permeant DNA dye. Since no cytokines are necessary after day 17 in the PSC-RED protocol in the absence of SCF and Epo, the only trigger left to induce terminal differentiation is the removal of dexamethasone and introduction of RU-4816, a glucocorticoid antagonist (FIG. 2A).

On to `Cc1nc(Nc2ncc(C(=O)Nc3c(C)cccc3Cl)s2)cc(N2CCN(CCO)CC2)n1` [dasatinib], for which the enucleation rate result is “about 25%”.
